In US6376497B1, “Antifungal azole derivatives having a fluorinated vinyl group and process for preparing same” (Korea Research Institute of Chemical Technology, priority 1999, dated 2002):
≈ marks a conversion by molar mass, not a printed value.

Columns and labels:
Test in all cases: In vitro antifungal activity, microbroth dilution MIC
Assay type in all cases: cell-based
[1] = test system: Torulopsis glabrata B. 16205; conditions: 4 to 48 hours; for Minimal inhibitory concentration (MIC): T. glabrata B. 16205, RPMI-1640, 35° C.; for Minimal inhibitory concentration(MIC), T. glabrata B. 16205: RPMI-1640, 35° C., no growth observed
Method in brief: (§1)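 Broth microdilution adapted from NCCLS M27, in RPMI-1640 with 0.165 M MOPS, pH 7.0. Yeast or mould inoculum at 2×10^3 CFU/ml was mixed 1:1 with DMSO-derived compound solutions (200 to 0.10 μg/ml before mixing) and incubated at 35 °C for 4 to 48 h. MIC was the concentration showing no growth.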

[2] = test system: Cryptococcus neoformans B. 42419; conditions: 4 to 48 hours; for Minimal inhibitory concentration (MIC): Cry. neoformans B. 42419, RPMI-1640, 35° C.; for Minimal inhibitory concentration(MIC), Cry. neoformans B. 42419: RPMI-1640, 35° C., no growth observed
Method in brief: as §1

[3] = test system: Trichophyton mentagrophytes A. 9129; conditions: 4 to 48 hours; for Minimal inhibitory concentration (MIC): T. mentagrophytes A. 9129, RPMI-1640, 35° C.; for Minimal inhibitory concentration(MIC), T. mentagrophytes A. 9129: RPMI-1640, 35° C., no growth observed
Method in brief: as §1

[4] = test system: Aspergillus niger A. 16404; conditions: 4 to 48 hours; for Minimal inhibitory concentration (MIC): A. niger A. 16404, RPMI-1640, 35° C.; for Minimal inhibitory concentration(MIC), A. niger A. 16404: RPMI-1640, 35° C., no growth observed
Method in brief: as §1

[5] = test system: Candida pseudotropicalis K. 11658; conditions: 4 to 48 hours; for Minimal inhibitory concentration (MIC): C. pseudotropicalis K. 11658, RPMI-1640, 35° C.; for Minimal inhibitory concentration(MIC), C. pseudotropicalis K. 11658: RPMI-1640, 35° C., no growth observed
Method in brief: as §1

[6] = test system: Candida albicans A. 10231; conditions: 4 to 48 hours; for Minimal inhibitory concentration (MIC): C. albicans A. 10231, RPMI-1640, 35° C.; for Minimal inhibitory concentration(MIC), C. albicans A. 10231: RPMI-1640, 35° C., no growth observed
Method in brief: as §1

[7] = test system: Candida tropicalis A. 13803; conditions: 4 to 48 hours; for Minimal inhibitory concentration (MIC): C. tropicalis A. 13803, RPMI-1640, 35° C.; for Minimal inhibitory concentration(MIC), C. tropicalis A. 13803: RPMI-1640, 35° C., no growth observed
Method in brief: as §1

[8] = test system: Trichophyton mentagrophytes B. 32663; conditions: 4 to 48 hours; for Minimal inhibitory concentration (MIC): T. mentagrophytes B. 32663, RPMI-1640, 35° C.; for Minimal inhibitory concentration(MIC), T. mentagrophytes B. 32663: RPMI-1640, 35° C., no growth observed
Method in brief: as §1

[9] = test system: Candida parapsitosis A. 7330; conditions: 4 to 48 hours; for Minimal inhibitory concentration (MIC): C. parapsitosis A. 7330, RPMI-1640, 35° C.; for Minimal inhibitory concentration(MIC), C. parapsitosis A. 7330: RPMI-1640, 35° C., no growth observed
Method in brief: as §1

[10] = test system: Cryptococcus neoformans A. 34144; conditions: 4 to 48 hours; for Minimal inhibitory concentration (MIC): Cry. neoformans A. 34144, RPMI-1640, 35° C.; for Minimal inhibitory concentration(MIC), Cry. neoformans A. 34144: RPMI-1640, 35° C., no growth observed
Method in brief: as §1

Candida albicans C1-2 = conditions: 4 to 48 hours; for Minimal inhibitory concentration (MIC): C. albicans C1-2, RPMI-1640, 35° C.; for Minimal inhibitory concentration(MIC), C. albicans C1-2: RPMI-1640, 35° C., no growth observed
Method in brief: as §1

[11] = test system: Aspergillus furnigatus B. 19119; conditions: 4 to 48 hours; for Minimal inhibitory concentration (MIC): A furnigatus B. 19119, RPMI-1640, 35° C.; for Minimal inhibitory concentration(MIC), A furnigatus B. 19119: RPMI-1640, 35° C., no growth observed
Method in brief: as §1

[12] = test system: Cryptococcus neoformans IFM. 40092; conditions: 4 to 48 hours; for Minimal inhibitory concentration (MIC): Cry. neoformans IFM. 40092, RPMI-1640, 35° C.; for Minimal inhibitory concentration(MIC), Cry. neoformans IFM. 40092: RPMI-1640, 35° C., no growth observed
Method in brief: as §1

[13] = test system: Candida albicans IFO. 1385; conditions: 4 to 48 hours; for Minimal inhibitory concentration (MIC): C. albicans IFO. 1385, RPMI-1640, 35° C.; for Minimal inhibitory concentration(MIC), C. albicans IFO. 1385: RPMI-1640, 35° C., no growth observed
Method in brief: as §1

Candida krusei K. 11655 = conditions: 4 to 48 hours; for Minimal inhibitory concentration (MIC): C. krusei K. 11655, RPMI-1640, 35° C.; for Minimal inhibitory concentration(MIC), C. krusei K. 11655: RPMI-1640, 35° C., no growth observed
Method in brief: as §1

| Compound | Minimal inhibitory concentration (MIC) [1] [µg/mL] | Minimal inhibitory concentration (MIC) [2] [µg/mL] | Minimal inhibitory concentration (MIC) [3] [µg/mL] | Minimal inhibitory concentration (MIC) [4] [µg/mL] | Minimal inhibitory concentration (MIC) [5] [µg/mL] | Minimal inhibitory concentration (MIC) [6] [µg/mL] | Minimal inhibitory concentration (MIC) [7] [µg/mL] | Minimal inhibitory concentration (MIC) [8] | Minimal inhibitory concentration (MIC) [9] [µg/mL] | Minimal inhibitory concentration (MIC) [10] [µg/mL] | Minimal inhibitory concentration (MIC) (Candida albicans C1-2) [µg/mL] | Minimal inhibitory concentration (MIC) [11] [µg/mL] | Minimal inhibitory concentration (MIC) [12] | Minimal inhibitory concentration (MIC) [13] [µg/mL] | Minimal inhibitory concentration (MIC) (Candida krusei K. 11655) [µg/mL] | Minimal inhibitory concentration(MIC), T. glabrata B. 16205 [1] [µg/mL] | Minimal inhibitory concentration(MIC), Cry. neoformans B. 42419 [2] [µg/mL] | Minimal inhibitory concentration(MIC), T. mentagrophytes A. 9129 [3] [µg/mL] | Minimal inhibitory concentration(MIC), A. niger A. 16404 [4] [µg/mL] | Minimal inhibitory concentration(MIC), C. pseudotropicalis K. 11658 [5] [µg/mL] | further results |
| --- | --- | --- | --- | --- | --- | --- | --- | --- | --- | --- | --- | --- | --- | --- | --- | --- | --- | --- | --- | --- | --- |
| FC(OCC1COC(Cn2ccnc2)(c2ccc(Cl)cc2Cl)O1)=C(c1cccs1)C(F)(F)F (mixture of isomers) [Ex. 35] | 25.0 | 1.56 | 25.0 | 100 | >100 | 25.0 | 100 | 6.25 µg/mL | >100 | 1.56 | 25.0 | 100 | 0.78 µg/mL | 1.56 | >100 |  |  |  |  |  |  |
| FC(Oc1ccc(OCC2COC(Cn3ccnc3)(c3ccc(Cl)cc3Cl)O2)cc1)=C(c1ccc(Oc2ccccc2)cc1)C(F)(F)F (mixture of isomers) [Ex. 100] |  |  |  |  |  |  |  |  |  |  |  |  |  |  |  | >100 | 12.5 | 100 | >100 | >100 | Minimal inhibitory concentration(MIC), C. albicans A. 10231 [6]: 50.0 µg/mL; Minimal inhibitory concentration(MIC), C. tropicalis A. 13803 [7]: >100 µg/mL; Minimal inhibitory concentration(MIC), T. mentagrophytes B. 32663 [8]: 100 µg/mL; Minimal inhibitory concentration(MIC), C. parapsitosis A. 7330 [9]: >100 µg/mL; Minimal inhibitory concentration(MIC), Cry. neoformans A. 34144 [10]: 6.25 µg/mL; Minimal inhibitory concentration(MIC), C. albicans C1-2 (Candida albicans C1-2): 100 µg/mL; Minimal inhibitory concentration(MIC), A furnigatus B. 19119 [11]: >100 µg/mL; Minimal inhibitory concentration(MIC), Cry. neoformans IFM. 40092 [12]: 1.56 µg/mL; Minimal inhibitory concentration(MIC), C. albicans IFO. 1385 [13]: 6.25 µg/mL; Minimal inhibitory concentration(MIC), C. krusei K. 11655 (Candida krusei K. 11655): >100 µg/mL |
| FC(=C(c1ccccc1)C(F)(F)F)N1CCN(c2ccc(OCC3COC(Cn4ccnc4)(c4ccc(Cl)cc4Cl)O3)cc2)CC1 (mixture of isomers) [Ex. 124] |  |  |  |  |  |  |  |  |  |  |  |  |  |  |  | 50.0 | 1.56 | 6.25 | >100 | >100 | Minimal inhibitory concentration(MIC), C. albicans A. 10231 [6]: 50.0 µg/mL; Minimal inhibitory concentration(MIC), C. tropicalis A. 13803 [7]: >100 µg/mL; Minimal inhibitory concentration(MIC), T. mentagrophytes B. 32663 [8]: 3.13 µg/mL; Minimal inhibitory concentration(MIC), C. parapsitosis A. 7330 [9]: >100 µg/mL; Minimal inhibitory concentration(MIC), Cry. neoformans A. 34144 [10]: 1.56 µg/mL; Minimal inhibitory concentration(MIC), C. albicans C1-2 (Candida albicans C1-2): 25.0 µg/mL; Minimal inhibitory concentration(MIC), A furnigatus B. 19119 [11]: >100 µg/mL; Minimal inhibitory concentration(MIC), Cry. neoformans IFM. 40092 [12]: 0.39 µg/mL; Minimal inhibitory concentration(MIC), C. albicans IFO. 1385 [13]: 1.56 µg/mL; Minimal inhibitory concentration(MIC), C. krusei K. 11655 (Candida krusei K. 11655): >100 µg/mL |
| CCOc1ccc(C=C(F)OCC2COC(Cn3ccnc3)(c3ccc(Cl)cc3Cl)O2)cc1 (stereo not drawn) [Ex. 10] | 12.5 (≈ 25.3 µM) | 1.56 (≈ 3.16 µM) | 6.25 (≈ 12.7 µM) | 50.0 (≈ 101 µM) | 6.25 (≈ 12.7 µM) | 25.0 (≈ 50.7 µM) | 50.0 (≈ 101 µM) | 1.56 µg/mL (≈ 3.16 µM) | 12.5 (≈ 25.3 µM) | 1.56 (≈ 3.16 µM) | 12.5 (≈ 25.3 µM) | 12.5 (≈ 25.3 µM) | ≦0.10 μg/ml | 1.56 (≈ 3.16 µM) | 25.0 (≈ 50.7 µM) |  |  |  |  |  |  |
| CC(C)(C)c1ccc(C(=C(F)N2CCN(c3ccc(OCC4COC(Cn5ccnc5)(c5ccc(Cl)cc5Cl)O4)cc3)CC2)C(F)(F)F)cc1 (mixture of isomers) [Ex. 128] |  |  |  |  |  |  |  |  |  |  |  |  |  |  |  | >100 | 0.78 | 12.5 | >100 | 1.56 | Minimal inhibitory concentration(MIC), C. albicans A. 10231 [6]: >100 µg/mL; Minimal inhibitory concentration(MIC), C. tropicalis A. 13803 [7]: >100 µg/mL; Minimal inhibitory concentration(MIC), T. mentagrophytes B. 32663 [8]: 6.25 µg/mL; Minimal inhibitory concentration(MIC), C. parapsitosis A. 7330 [9]: 3.13 µg/mL; Minimal inhibitory concentration(MIC), Cry. neoformans A. 34144 [10]: 0.78 µg/mL; Minimal inhibitory concentration(MIC), C. albicans C1-2 (Candida albicans C1-2): >100 µg/mL; Minimal inhibitory concentration(MIC), A furnigatus B. 19119 [11]: >100 µg/mL; Minimal inhibitory concentration(MIC), Cry. neoformans IFM. 40092 [12]: ≦0.10 μg/ml; Minimal inhibitory concentration(MIC), C. albicans IFO. 1385 [13]: 1.56 µg/mL; Minimal inhibitory concentration(MIC), C. krusei K. 11655 (Candida krusei K. 11655): 3.13 µg/mL |
| FC(=Cc1ccc(Cl)cc1)OCC1COC(Cn2ccnc2)(c2ccc(F)cc2F)O1 (mixture of isomers) [Ex. 47] | 6.25 | 0.78 | 0.39 | 6.25 | 6.25 | 12.5 | 25.0 | ≦0.10 μg/ml | 6.25 | 0.78 | 12.5 | 1.56 | ≦0.10 μg/ml | 0.20 | 12.5 |  |  |  |  |  |  |
| Cc1cccc(C(=C(F)OCC2COC(Cn3ccnc3)(c3ccc(F)cc3F)O2)C(F)(F)F)c1 (mixture of isomers) [Ex. 53] | 6.25 | 0.78 | 3.13 | 25.0 | >100 | 12.5 | 100 | 1.56 µg/mL | >100 | 1.56 | 25.0 | 3.13 | ≦10.10 μg/ml | 0.78 | >100 |  |  |  |  |  |  |
| FC(=C(c1cc(Cl)cc(Cl)c1)C(F)(F)F)N1CCN(c2ccc(OCC3COC(Cn4ccnc4)(c4ccc(Cl)cc4Cl)O3)cc2)CC1 (mixture of isomers) [Ex. 136] |  |  |  |  |  |  |  |  |  |  |  |  |  |  |  | >100 | >100 | >100 | >100 | >100 | Minimal inhibitory concentration(MIC), C. albicans A. 10231 [6]: >100 µg/mL; Minimal inhibitory concentration(MIC), C. tropicalis A. 13803 [7]: >100 µg/mL; Minimal inhibitory concentration(MIC), T. mentagrophytes B. 32663 [8]: >100 µg/mL; Minimal inhibitory concentration(MIC), C. parapsitosis A. 7330 [9]: >100 µg/mL; Minimal inhibitory concentration(MIC), Cry. neoformans A. 34144 [10]: >100 µg/mL; Minimal inhibitory concentration(MIC), C. albicans C1-2 (Candida albicans C1-2): >100 µg/mL; Minimal inhibitory concentration(MIC), A furnigatus B. 19119 [11]: >100 µg/mL; Minimal inhibitory concentration(MIC), Cry. neoformans IFM. 40092 [12]: 1.56 µg/mL; Minimal inhibitory concentration(MIC), C. albicans IFO. 1385 [13]: >100 µg/mL; Minimal inhibitory concentration(MIC), C. krusei K. 11655 (Candida krusei K. 11655): >100 µg/mL |
